Reference: article PMC5736435 (European journal of medicinal chemistry, 2017)
In brackets after ≈: the same amount, converted by molar mass.

Columns and labels:
S. aureus NRS119 [1] = settings: cited from earlier work
[2] = in vivo; cited from earlier work
MRSA USA300 [3] = format: cell-based, Staphylococcus aureus; settings: MRSA USA300, fourteen passages over two weeks
[4] = system: human colorectal cells (HRT-18); test: In vitro cytotoxicity; format: cell-based; settings: for concentration not toxic to HRT-18 cells: MTS assay, two hours incubation; for safety margin: human, 2 h
BHK-21 = test: In vitro cytotoxicity; format: cell-based, hamster; settings: MTT assay
[5] = In vivo pharmacokinetics in rats; settings: rat
MRSA USA300 [6] = test: Time-kill assay against MRSA; format: cell-based, Staphylococcus aureus
S. aureus NRS107 = test: MIC by broth microdilution against mupirocin-resistant S. aureus NRS107; format: cell-based, Staphylococcus aureus; settings: S. aureus NRS107, high-level resistance to mupirocin
MRSA (2658 RCMB) = test: MIC by broth microdilution against MRSA clinical isolate 2658 RCMB; format: cell-based; settings: Staphylococcus aureus
S. aureus NRS119 [7] = test: MIC by broth microdilution against linezolid-resistant S. aureus NRS119; format: cell-based, Staphylococcus aureus; settings: S. aureus NRS119, resistance to linezolid
S. aureus NRS384 = format: cell-based, Staphylococcus aureus; settings: S. aureus NRS384, resistance to macrolides and tetracyclines
PBS solubility screen = format: physicochemical
[8] = phosphate-buffered saline; cited from earlier work

Structure (SMILES): CC(=O)NC[C@H]1CN(c2ccc(N3CCOCC3)c(F)c2)C(=O)O1 [linezolid]
- MIC (S. aureus NRS119 [1]): > 128 µg/mL

Structure (SMILES): CCC[C@H](NC(=O)[C@@H]1[C@H]2CCC[C@H]2CN1C(=O)[C@@H](NC(=O)[C@@H](NC(=O)c1cnccn1)C1CCCCC1)C(C)(C)C)C(=O)C(=O)NC1CC1 [telaprevir]
- oral bioavailability [2]: ≤ 3%

Structure (SMILES): Cc1nc(-c2ccc(-c3ccccc3)cc2)sc1-c1nnc(NC(=N)N2CCOCC2)o1 [Compound 26, N-{5-(2-([1,1′-Biphenyl]-4-yl)-4-methylthiazol-5-yl)-1,3,4-oxadiazol-2-yl}morpholine-4-carboximidamide]
- shift in MIC over fourteen passages (MRSA USA300 [3]): No increase in MIC
- concentration not toxic to HRT-18 cells [4]: 256 µg/mL
- tolerability against non-cancerous cell line BHK-21 (BHK-21): highly tolerable

Structure (SMILES): Cc1nc(-c2ccc(-c3ccccc3)cc2)sc1-c1nnc(NC(=N)N2CCN(C)CC2)o1 [Compound 27, N-{5-(2-([1,1′-Biphenyl]-4-yl)-4-methylthiazol-5-yl)-1,3,4-oxadiazol-2-yl}-4-methylpiperazine-1-carboximid-amide]
- Cmax relative to MIC against MRSA (2658 RCMB) ([5]; in vivo, po, 25 mg/kg): nearly six-fold
- shift in MIC over fourteen passages (MRSA USA300 [3]): No increase in MIC
- MRSA CFU after 24 h (MRSA USA300 [6]; after 24 h, 4 × MIC, 37 °C): completely eradicated
- mode of action, bacteriostatic or bactericidal (MRSA USA300 [6]; at the concentration tested (4 × MIC)): bactericidal
- growth inhibition (S. aureus NRS107): inhibited growth
- concentration not toxic to HRT-18 cells [4]: 512 µg/mL
- safety margin [4]: more than 400 ×MIC
- MIC (MRSA (2658 RCMB)): 1.1 µg/mL (≈ 2.39 µM)
- tolerability against non-cancerous cell line BHK-21 (BHK-21): highly tolerable
- growth inhibition (S. aureus NRS119 [7]): inhibited growth
- growth inhibition (S. aureus NRS384): inhibited growth

Structure (SMILES): Cc1nc(-c2ccc(-c3ccccc3)cc2)sc1-c1nnc(NC(=N)N)o1 [Compound 22, 1-{5-(2-([1,1′-Biphenyl]-4-yl)-4-methylthiazol-5-yl)-1,3,4-oxadiazol-2-yl}guanidine]
- improvement in aqueous solubility relative to pyrimidine analogue 1c (PBS solubility screen): 43 times

Structure (SMILES): C/C(=N\NC(=N)N)c1sc(-c2ccc(-c3ccccc3)cc2)nc1C [Compound 1b, reference compound]
- solubility at 2 h (PBS solubility screen; Solubility limit): 2.2 µM (≈ 0.769 µg/mL)
- times less soluble than lead compound 1a [8]: 24 times

Structure (SMILES): CCCCc1ccc(-c2nc(C)c(/C(C)=N/NC(=N)N)s2)cc1 [Compound 1a, reference compound]
- %F (oral bioavailability) ([5]; 25 mg/kg oral dose): not bioavailable orally
- safety margin [4]: 32 ×MIC
